Reference: US20200062789A1, “HYDROXAMIC ACID PRODRUG COMPOUND OR SALT THEREOF, LYOPHILIZED FORMULATION, LPXC INHIBITOR, AND ANTIBACTERIAL AGENT” (FUJIFILM Toyama Chemical Co., Ltd., priority 2017, published 2020)

Experiments:
[1] = test system: Pseudomonas aeruginosa (S-2838 strain); experiment: Multidrug-resistant Pseudomonas aeruginosa urinary tract infection model test in mice; assay type: in vivo; conditions: ICR female mice, 25 mg/kg once by tail vein 2 hours after infection, kidney count on the day after infection
Description: The mice used were ICR female SPF mice (5 weeks old: 5 mice per group). The inoculum solution was prepared by suspending a clinical isolate of Pseudomonas aeruginosa (S-2838 strain) cultured overnight at 37° C. on a Mueller-Hinton agar plate in sterile saline. The infection was induced by inoculating 0.2 mL (about 10^3 CFU/mouse) of the inoculum solution into the urethra of each mouse. The test compound was dissolved in sterile saline and given once by tail vein administration 2 hours after infection. The count of viable cells in the kidney on the day after infection was recorded and the mean value was calculated.

[2] = Stability in 100 mmol/L tris-hydrochloric acid buffer (pH 7.4); assay type: physicochemical; conditions: compared to Example 1
[3] = Solubility test (visual dissolution in physiological saline; saturated solubility); assay type: physicochemical; conditions: saline or isotonic, thermodynamic from solid, 1.2 mg taken, dissolution confirmed visually
Description: The compounds of Examples 1 and 2 were taken in an amount of 1.2 mg, physiological saline was added during stirring until dissolution could be confirmed visually, and the solubility was calculated.

solubility [3]	SMILES	further results
	CNC(=O)[C@@](C)(C(=O)NO)N(C)C(=O)c1ccc(C#Cc2ccc([C@H](O)COP(=O)(O)O)cc2)cc1 [Comparative Example 1, (S)-2-hydroxy-2-(4-((4-(((S)-1-(hydroxyamino)-2-methyl-3-(methylamino)-1,3-dioxopropan-2-yl)(methyl)carbamoyl)phenyl)ethynyl)phenyl)ethyl phosphate]	decrease of count of viable cells in the kidney compared with control group [1]: < 4 log CFU/kidney
	CNC(=O)[C@@](C)(C(=O)NOC(=O)CCC(=O)O)N(C)C(=O)c1ccc(C#Cc2ccc([C@H](O)CO)cc2)cc1 [Comparative Example 2, 4-(((S)-2-(4-((4-((S)-1,2-dihydroxyethyl)phenyl)ethynyl)-N-methylbenzamide)-2-methy 1-3-(methylamino)-3-oxopropanamide)oxy)-4-oxobutanoic acid]	stability in buffer (decomposition to compound A) [2]: easily decomposed
> 100 mg/mL	CNC(=O)[C@@](C)(C(=O)NOCOP(=O)(O)O)N(C)C(=O)c1ccc(C#Cc2ccc([C@H](O)CO)cc2)cc1 [Example 2, (((S)-2-(4-((4-((S)-1,2-dihydroxyethyl)phenyl)ethynyl)-N-methylbenzamide)-2-methyl-3-(methylamino)-3-oxopropanamide)oxy)methyl dihydrogen phosphate]	
> 100 mg/mL	CNC(=O)[C@@](C)(C(=O)NOP(=O)(O)O)N(C)C(=O)c1ccc(C#Cc2ccc([C@H](O)CO)cc2)cc1 [Example 1, (((S)-2-(4-((4-((S)-1,2-dihydroxyethyl)phenyl)ethynyl)-N-methylbenzamide)-2-methyl-3-(methylamino)-3-oxopropanamide)oxy)phosphonic acid]	
